Laboratory results from ChEMBL document CHEMBL1201862, “PubChem BioAssay data set” (2004).
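Values below derive from 48-hour exposures of cells grown in 96-well plates, with endpoints linearly interpolated between the two concentrations bracketing the appropriate inhibition level. Here, GI50 denotes the concentration required for 50% inhibition of growth.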 The source made the active and inactive calls. Rule as the data show it: active = GI50 up to about 1.1 µM and inactive = higher.

Legend:
Experiment in all cases: DTP human tumour cell line panel, 48 h
Malme-3M = test system: Malme-3M
MDA-N = test system: MDA-N
KM12 = test system: KM12
T47D = test system: T47D
PC-3 = test system: PC-3
HCT-15 = test system: HCT-15
SK-OV-3 = test system: SK-OV-3
OVCAR-3 = test system: OVCAR-3
BT-549 = test system: BT-549
UO-31 = test system: UO-31
NCI/ADR-RES = test system: NCI/ADR-RES
SR = test system: SR
SF-539 = test system: SF-539
CCRF-CEM = test system: CCRF-CEM
SNB-75 = test system: SNB-75
HL-60 = test system: HL-60
NCI-H23 = test system: NCI-H23
HCT-116 = test system: HCT-116
HT-29 = test system: HT-29
MDA-MB-435 = test system: MDA-MB-435

| SMILES | GI50 (Malme-3M) | GI50 (MDA-N) | GI50 (KM12) | GI50 (T47D) | GI50 (PC-3) | GI50 (HCT-15) [µM] | GI50 (SK-OV-3) | GI50 (OVCAR-3) | GI50 (BT-549) | GI50 (UO-31) | GI50 (NCI/ADR-RES) | GI50 (SR) | GI50 (SF-539) | GI50 (CCRF-CEM) | GI50 (SNB-75) | GI50 (HL-60) | GI50 (NCI-H23) | GI50 (HCT-116) | GI50 (HT-29) | GI50 (MDA-MB-435) |
| --- | --- | --- | --- | --- | --- | --- | --- | --- | --- | --- | --- | --- | --- | --- | --- | --- | --- | --- | --- | --- |
| O=C(O)C(O)C(O)C(O)C(O)CO.[Ba+2] (stereo not given) | > 100 µM (inactive) | > 100 µM (inactive) | > 100 µM (inactive) | > 100 µM (inactive) | > 100 µM (inactive) | > 100 | > 100 µM (inactive) | > 100 µM (inactive) | > 100 µM (inactive) | > 100 µM (inactive) | > 100 µM (inactive) | > 100 µM (inactive) | > 100 µM (inactive) | > 100 µM (inactive) | > 100 µM (inactive) | 3.12 µM (inactive) | > 100 µM (inactive) | > 100 µM (inactive) | > 100 µM (inactive) | > 100 µM (inactive) |
| CC(C)c1cc(C(F)(F)F)nc(NNc2nc(C(C)C)cc(C(F)(F)F)n2)n1 | 49 µM (inactive) | > 100 µM (inactive) | > 100 µM (inactive) | > 100 µM (inactive) | > 100 µM (inactive) | > 100 | 33.7 µM (inactive) | 17.1 µM (inactive) | > 100 µM (inactive) | > 100 µM (inactive) | > 100 µM (inactive) | > 100 µM (inactive) | 90.8 µM (inactive) | > 100 µM (inactive) | 24.2 µM (inactive) | > 100 µM (inactive) | 53.8 µM (inactive) | 93.8 µM (inactive) | > 100 µM (inactive) | > 100 µM (inactive) |
| COC(=O)c1c(C)ccc2c(O)c3c(cc12)C(=O)c1c2c(cc(O)c1C3=O)C1(C)OC(C)(O2)C(O)C(N(C)C)C1O (stereo not given) | 2.62 µM (inactive) | 1.45 µM (inactive) | 1.42 µM (inactive) | 2.76 µM (inactive) | 1.66 µM (inactive) | 1.46 | 3.33 µM (inactive) | 2.41 µM (inactive) | 3.61 µM (inactive) | 1.87 µM (inactive) | 2.79 µM (inactive) | 0.294 µM (active) | 2.21 µM (inactive) | 0.283 µM (active) | 1.61 µM (inactive) | 3.98 µM (inactive) | 1.56 µM (inactive) | 0.643 µM (active) | 0.577 µM (active) | 1.62 µM (inactive) |
| COc1cccc(-c2cc(O)c3c(C)cc(C)nc3n2)c1 | 0.252 µM (active) | 0.067 µM (active) | 0.264 µM (active) | 14.5 µM (inactive) | 0.304 µM (active) | 0.399 | 0.468 µM (active) | 0.228 µM (active) | 12.3 µM (inactive) | 0.867 µM (active) | 1.13 µM (inactive) | 0.136 µM (active) | 0.455 µM (active) | 0.431 µM (active) | 0.167 µM (active) | 0.182 µM (active) | 0.746 µM (active) | 0.395 µM (active) | 0.34 µM (active) | 0.0512 µM (active) |
| COc1ccc2c(c1)C(=O)C1CCC(=O)N1C2c1ccc2c(c1)OCO2 (stereo not given) | 4.89 µM (inactive) | 8.32 µM (inactive) | 8.87 µM (inactive) | 14.2 µM (inactive) | 4.2 µM (inactive) | 12.2 | 26.3 µM (inactive) | 3.64 µM (inactive) | 4.26 µM (inactive) | 10.6 µM (inactive) | 22.7 µM (inactive) | 4.56 µM (inactive) | 23 µM (inactive) | 3.09 µM (inactive) | 14.9 µM (inactive) | 2.79 µM (inactive) | 15.1 µM (inactive) | 3.67 µM (inactive) | 4.12 µM (inactive) | 6.21 µM (inactive) |
